The text below walks through data of patent publication US9535058B2, “Flow chamber analyte detection method” (Drexel University, priority 2010, dated 2017).

This test deals with Bovine aortic endothelial cells (BAECs). In words: Shear stress-induced NO production by endothelial cells in the two-compartment flow chamber, NO electrode measurement. Type of test: cell-based. The conditions noted are these: 1 mM L-NAME. Here is the method:
Bovine aortic endothelial cells (BAECs) were cultured in Dulbecco's modified Eagle's medium (Mediatech Cellgro), supplemented with 10% fetal bovine serum (Sigma), 2 mmol/l L-glutamine (Mediatech Cellgro), and penicillin-streptomycin (Mediatech Cellgro). The cells were grown to confluency and subsequently plated onto the lower surface of individual polyester Transwell® membranes (Corning Transwell Permeable Supports having a 24 mm diameter culture area with 3 μm pores). The Transwell® membranes were then placed in an incubator overnight, inverted and cultured for 1 day before conducting the experimental study. The Transwell® membranes were subsequently washed 3 three times with a solution of Dulbecco's Phosphate Buffered Saline (PBS) with calcium/magnesium (Sigma) supplemented with 70 μM L-arginine (L-arg) (Sigma) and inserted into the flow chamber.
The flow chamber included an electrode and equipment for measuring NO (TBR4100 4-channel Free Radical Analyzer and 200 μm diameter mini sensors for NO measurements ISO-NOPF). The electrodes were frequently recoated with nafion (Sigma) and re-calibrated during the experimental study to improve selectivity. The recoating process involved at least two dip/dry sessions. The electrodes were calibrated by the decomposition of a NO donor S-nitroso-N-acetyl-penicillamine (SNAP) using Cu(II). The SNAP was prepared by dissolving 5 mg EDTA and 5.0 mg+/−2.0 mg of SNAP in 250 mL HPLC grade water. The electrode was immersed in 12 mL of 0.1 M copper(II) sulfate in distilled water for about 1 to about 2 hours until the electrode stabilized. Aliquots of SNAP were sequentially added in an amount of about 10 μL, 20 μL, 40 μL, 80 μL after each signal reached a plateau. A multipoint calibration plot was created using Data-Trax software (produced by WPI). The sampling rate was 10 samples/s. The change in recorded potential was converted to corresponding molarities of NO produced by SNAP addition. The efficiency of the conversion of SNAP to NO was 0.6. Electrode sensitivity was at least about 10 pA/nM. […] The temperature probe supplied by WPI was pre-scaled using a two-point entry of known temperatures (0.03125V=1° C., 0.625V=20° C.).
The dimensions (in cm) of the flow channel were about: 4.57 W×12.19 L×0.025 H. The flow inlet and outlet had large reservoirs with sampling ports. A glass coverslip covered an opening in the bottom plate, allowing visualization of the cell layer and the electrode on an inverted microscope. As shown in FIGS. 5-6, endothelial cells were grown on the lower surface of a Transwell® porous membrane, which fit into the flow chamber flush with the upper plate of the flow chamber. […] Below the Transwell® membrane, fluid flowed through the parallel plate channel that defined the lower compartment, exposing the endothelial cells to uniform shear stress. Above the Transwell® membrane, a stagnant upper fluid compartment, having a small volume housed the NO electrode and temperature sensor. This design placed the electrode out of the fluid flow avoiding problems associated with potential flow sensitivities, flow disturbances and chamber leaking at the electrode insertion site. Furthermore, due to the small volume and zero flux condition at the other boundaries of the stagnant upper fluid compartment and the short diffusion distance through the membrane, the concentration of NO in the upper fluid compartment was nearly uniform and rapidly equilibrated with the concentration in the cell layer. The electrode was lowered into the upper compartment of the flow chamber until it rested on the surface of the Transwell® membrane at a fixed distance from the ECs of about 10 μm equal to the thickness of the membrane. This configuration allowed the NO generated by the cells to be measured abluminally from the endothelial cell layer. Due to the temperature sensitivity of the NO electrode, the flow chamber was enclosed in a water bath at 37° C. in order to prevent heat loss and temperature fluctuations. […]

Regarding `COC(=O)[C@@H](N)CCCNC(=N)N[N+](=O)[O-]` [L-NAME, Nω-Nitro-L-arginine methyl ester], the “RNO (NO production rate) as % of RNO estimated from untreated ECs, hyperbolic model” value (L-arg also in perfusate, shear stress change 0.1 to 20 dyn/cm^2, hyperbolic model fit) is recorded as “about 57.6%”. For the same compound, under “L-arg also in perfusate, shear stress change 0.1 to 20 dyn/cm^2, linear model fit”, the “RNO (NO production rate) as % of RNO estimated from untreated ECs, linear model” value is given as “about 57.3%”. Also, under “L-arg also in perfusate, shear stress change 0.1 to 20 dyn/cm^2, sigmoidal model fit”, the “RNO (NO production rate) as % of RNO estimated from untreated ECs, sigmoidal model” value is “about 58.3%”. Besides, the “reduction of steady-state NO concentration changes in response to shear stress step changes after treatment with L-NAME” value (pH 7.2, step changes from 0.1 dyn/cm^2 to 1, 6, 10 or 20 dyn/cm^2, vs before treatment, FIG. 10) came to 40%. Under “flow-induced shear stress stimulation”, the “effect on shear stress-induced NO concentration changes (Example 1, in words)” value is reported as “partially attenuated”. In addition, the “steady-state NO concentration changes after treatment, as % of the untreated values (average)” value (shear stress step changes from 0.1 dyn/cm^2, FIG. 10) was 60%. Moreover, the “effect on flow induced NO response (Example 2)” value (step changes from about 1 to about 5 and about 1 to about 10 dyn/cm^2) is “significantly reduced”.
